Source: paper PMC8286840, “Identifying SARS-CoV-2 antiviral compounds by screening for small molecule inhibitors of Nsp3 papain-like protease” (Biochemical Journal, 2021)
Structures can show the parent of a compound that is named as a salt. Where two headings read alike, the source gives them in different places.

How the values were obtained:
[1] = molecular target: T1, SARS-CoV-2 PLpro (nsp3 1564–1878) (Severe acute respiratory syndrome coronavirus 2, UniProt P0DTD1); assay: biochemical; set-up: FRET-quenched peptide (Pro3) cleavage by PLpro, 10 min pre-incubation, slope over 20 min, normalised to no-compound control; conditions: high concentration screen, read-out: % of control remaining
[2] = molecular target: T1, SARS-CoV-2 PLpro (nsp3 1564–1878); assay: biochemical; set-up: FRET-quenched peptide (Pro3) cleavage by PLpro, 10 min pre-incubation, slope over 20 min, normalised to no-compound control; conditions: low concentration screen, read-out: % of control remaining

Structure (SMILES): CCNC(=O)c1[nH]nc(-c2cc(Cl)c(O)cc2O)c1-c1ccc(OC)cc1 [VER-49009]
- remaining activity at 3.75 µM ([1]; Well no.=8622): 100%
- remaining activity at 1.25 µM ([2]; Well no.=8622): 100%

Structure (SMILES): CCNC(=O)c1noc(-c2cc(Cl)c(O)cc2O)c1-c1ccc(OC)cc1 [VER-50589]
- remaining activity at 3.75 µM ([1]; Well no.=8670): 97.5%
- remaining activity at 1.25 µM ([2]; Well no.=8670): 95.3%

Structure (SMILES): C=CC(=O)N1CC/C(=C\c2ccc(F)c([N+](=O)[O-])c2)C(=O)/C(=C/c2ccc(F)c([N+](=O)[O-])c2)C1 [VLX1570]
- remaining activity at 3.75 µM ([1]; Well no.=7794): 95.4%
- remaining activity at 1.25 µM ([2]; Well no.=7794): 95.6%

Structure (SMILES): COc1ccc(CNC(=O)c2sc3nc(C)cc(C)c3c2N)cc1 [VU0152100]
- remaining activity at 3.75 µM ([1]; Well no.=5931): 98.2%
- remaining activity at 3.75 µM ([1]; Well no.=7293): 88.9%
- remaining activity at 1.25 µM ([2]; Well no.=5931): 95.9%
- remaining activity at 1.25 µM ([2]; Well no.=7293): 91.9%

Structure (SMILES): CCOC(=O)N1CCC(NCCNC(=O)c2ccccc2C)CC1 [VU0357017 (hydrochloride)]
- remaining activity at 3.75 µM ([1]; Well no.=6995): 95.5%
- remaining activity at 1.25 µM ([2]; Well no.=6995): 97.4%

Structure (SMILES): COc1cc(NC(=O)c2ccccn2)ccc1Cl [VU0361737]
- remaining activity at 3.75 µM ([1]; Well no.=7189): 97.6%
- remaining activity at 1.25 µM ([2]; Well no.=7189): 99.9%

Structure (SMILES): O=C(Nc1cccc(Cl)c1)c1ccccn1 [VU0364770]
- remaining activity at 3.75 µM ([1]; Well no.=7761): 105%
- remaining activity at 1.25 µM ([2]; Well no.=7761): 102%

Structure (SMILES): Cc1cc(OCCCc2c3n(c4c(-c5c(C)nn(C)c5C)c(Cl)ccc24)[C@H](C)CN(c2cn(C)c4ccc(C(=O)O)cc24)C3=O)cc(C)c1Cl [VU0661013]
- remaining activity at 3.75 µM ([1]; Well no.=7066): 98.3%
- remaining activity at 1.25 µM ([2]; Well no.=7066): 105%

Structure (SMILES): COc1ccc(CN2C(=O)C(=O)c3cc(OC(F)(F)F)ccc32)cc1 [VU 0238429]
- remaining activity at 3.75 µM ([1]; Well no.=8702): 93.7%
- remaining activity at 1.25 µM ([2]; Well no.=8702): 97.3%

Structure (SMILES): CCCCOc1ccc(C(=O)Nc2ccc(F)cc2F)cc1 [VU 0357121]
- remaining activity at 3.75 µM ([1]; Well no.=4932): 98.8%
- remaining activity at 3.75 µM ([1]; Well no.=7857): 107%
- remaining activity at 1.25 µM ([2]; Well no.=4932): 99.8%
- remaining activity at 1.25 µM ([2]; Well no.=7857): 105%

Structure (SMILES): COc1cc(NC(=O)c2ccccn2)ccc1Cl [VU 0361737]
- remaining activity at 3.75 µM ([1]; Well no.=4837): 106%
- remaining activity at 1.25 µM ([2]; Well no.=4837): 98.5%

Structure (SMILES): O=C(Nc1ccc(S(=O)(=O)Nc2ccccc2Cl)c(Cl)c1)c1ccccn1 [VU 0364439]
- remaining activity at 3.75 µM ([1]; Well no.=4978): 96.2%
- remaining activity at 1.25 µM ([2]; Well no.=4978): 96.2%

Structure (SMILES): O=C1C(=O)N(Cc2ccc(-c3ccccc3)cc2)c2ccc(OC(F)(F)F)cc21 [VU 0365114]
- remaining activity at 3.75 µM ([1]; Well no.=8036): 94.8%
- remaining activity at 1.25 µM ([2]; Well no.=8036): 97.4%

Structure (SMILES): CN1CCN(c2cc(-c3ccccc3)nc(N)n2)CC1 [VUF10460]
- remaining activity at 3.75 µM ([1]; Well no.=7041): 105%
- remaining activity at 1.25 µM ([2]; Well no.=7041): 105%

Structure (SMILES): COc1ccccc1NC(=O)Nc1nc(-c2cccnc2)nc2ccccc12 [VUF 5574]
- remaining activity at 3.75 µM ([1]; Well no.=1384): 97.5%
- remaining activity at 1.25 µM ([2]; Well no.=1384): 101%

Structure (SMILES): CN1CCN(c2nc3ccccc3nc2Cl)CC1 [VUF 10166]
- remaining activity at 3.75 µM ([1]; Well no.=4831): 103%
- remaining activity at 1.25 µM ([2]; Well no.=4831): 99.1%

Structure (SMILES): NC(=O)c1ccc(N(C(N)=O)c2c(F)cccc2F)nc1-c1ccc(F)cc1F [VX702]
- remaining activity at 3.75 µM ([1]; Well no.=2943): 105%
- remaining activity at 1.25 µM ([2]; Well no.=2943): 104%

Structure (SMILES): CC(C)(C)C#Cc1cc(N(C(=O)[C@H]2CC[C@H](C)CC2)[C@H]2CC[C@H](O)CC2)c(C(=O)O)s1 [VX-222]
- remaining activity at 3.75 µM ([1]; Well no.=4903): 96.2%
- remaining activity at 1.25 µM ([2]; Well no.=4903): 97.1%

Structure (SMILES): CC(C)(CO)c1cc2cc(NC(=O)C3(c4ccc5c(c4)OC(F)(F)O5)CC3)c(F)cc2n1C[C@@H](O)CO [VX-661]
- remaining activity at 3.75 µM ([1]; Well no.=4780): 94.1%
- remaining activity at 1.25 µM ([2]; Well no.=4780): 97%

Structure (SMILES): Cc1ccc(NC(=O)C2(c3ccc4c(c3)OC(F)(F)O4)CC2)nc1-c1cccc(C(=O)O)c1 [VX-809]
- remaining activity at 3.75 µM ([1]; Well no.=4961): 95%
- remaining activity at 1.25 µM ([2]; Well no.=4961): 95.6%

Structure (SMILES): Cc1ccc2c(=O)c3cccc(CC(=O)O)c3oc2c1C [Vadimezan]
- remaining activity at 3.75 µM ([1]; Well no.=8465): 97.4%
- remaining activity at 1.25 µM ([2]; Well no.=8465): 104%

Structure (SMILES): CC(C)[C@H](N)C(=O)OCCOCn1cnc2c(=O)nc(N)[nH]c21 [Valaciclovir]
- remaining activity at 3.75 µM ([1]; Well no.=2012): 97.7%
- remaining activity at 1.25 µM ([2]; Well no.=2012): 98.7%

Structure (SMILES): Cc1onc(-c2ccccc2)c1-c1ccc(S(N)(=O)=O)cc1 [Valdecoxib]
- remaining activity at 3.75 µM ([1]; Well no.=4694): 95.9%
- remaining activity at 1.25 µM ([2]; Well no.=4694): 97.5%

Structure (SMILES): CC(C)[C@H](N)C(=O)OCC(CO)OCn1cnc2c(=O)nc(N)[nH]c21 (stereo partly drawn) [Valganciclovir (hydrochloride)]
- remaining activity at 3.75 µM ([1]; Well no.=8044): 93.4%
- remaining activity at 1.25 µM ([2]; Well no.=8044): 94.6%

Structure (SMILES): CC(C)[C@@H]1NC(=O)[C@H](C)OC(=O)[C@@H](C(C)C)NC(=O)[C@@H](C(C)C)OC(=O)[C@H](C(C)C)NC(=O)[C@H](C)OC(=O)[C@@H](C(C)C)NC(=O)[C@@H](C(C)C)OC(=O)[C@H](C(C)C)NC(=O)[C@H](C)OC(=O)[C@@H](C(C)C)NC(=O)[C@@H](C(C)C)OC1=O [Valinomycin]
- remaining activity at 3.75 µM ([1]; Well no.=3631): 101%
- remaining activity at 1.25 µM ([2]; Well no.=3631): 99.9%

Structure (SMILES): CCC(C)C(CC)C(N)=O (stereo not drawn) [Valnoctamide]
- remaining activity at 3.75 µM ([1]; Well no.=5429): 110%
- remaining activity at 1.25 µM ([2]; Well no.=5429): 103%

Structure (SMILES): CCCC(CCC)C(=O)O [Valproic acid sodium]
- remaining activity at 3.75 µM ([1]; Well no.=812): 99.4%
- remaining activity at 1.25 µM ([2]; Well no.=812): 99.6%

Structure (SMILES): CCCC(CCC)C(=O)O [Valproic acid]
- remaining activity at 3.75 µM ([1]; Well no.=1758): 100%
- remaining activity at 1.25 µM ([2]; Well no.=1758): 98.8%

Structure (SMILES): CCCC(CCC)C(N)=O [Valpromide]
- remaining activity at 3.75 µM ([1]; Well no.=5383): 109%
- remaining activity at 1.25 µM ([2]; Well no.=5383): 103%

Structure (SMILES): CCCCC(=O)N(Cc1ccc(-c2ccccc2-c2nnn[nH]2)cc1)[C@H](C(=O)O)C(C)C [Valsartan]
- remaining activity at 3.75 µM ([1]; Well no.=7542): 98%
- remaining activity at 3.75 µM ([1]; Well no.=8247): 99.1%
- remaining activity at 1.25 µM ([2]; Well no.=7542): 94.7%
- remaining activity at 1.25 µM ([2]; Well no.=8247): 105%

Structure (SMILES): C/C=C/C[C@@H](C)C(=O)[C@H]1C(=O)N[C@@H](C(C)C)C(=O)N(C)CC(=O)N(C)[C@@H](CC(C)C)C(=O)N[C@@H](C(C)C)C(=O)N(C)[C@@H](CC(C)C)C(=O)N[C@@H](C)C(=O)N[C@H](C)C(=O)N(C)[C@@H](CC(C)C)C(=O)N(C)[C@@H](CC(C)C)C(=O)N(C)[C@@H](C(C)C)C(=O)N1C [Valspodar]
- remaining activity at 3.75 µM ([1]; Well no.=8226): 94.7%
- remaining activity at 1.25 µM ([2]; Well no.=8226): 94.7%

Structure (SMILES): CN[C@H](CC(C)C)C(=O)N[C@H]1C(=O)N[C@@H](CC(N)=O)C(=O)N[C@H]2C(=O)N[C@H]3C(=O)N[C@H](C(=O)N[C@H](C(=O)O)c4cc(O)cc(O)c4-c4cc3ccc4O)[C@H](O)c3ccc(c(Cl)c3)Oc3cc2cc(c3O[C@@H]2O[C@H](CO)[C@@H](O)[C@H](O)[C@H]2O[C@H]2C[C@](C)(N)[C@H](O)[C@H](C)O2)Oc2ccc(cc2Cl)[C@H]1O [Vancomycin (hydrochloride)]
- remaining activity at 3.75 µM ([1]; Well no.=7882): 98.3%
- remaining activity at 1.25 µM ([2]; Well no.=7882): 103%

Structure (SMILES): COc1cc2/c(=N/c3ccc(Br)cc3F)nc[nH]c2cc1OCC1CCN(C)CC1 [Vandetanib]
- remaining activity at 3.75 µM ([1]; Well no.=2799): 101%
- remaining activity at 1.25 µM ([2]; Well no.=2799): 101%
